Data taken from ChEMBL document CHEMBL1201862, “PubChem BioAssay data set” (2004).
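Five concentrations, 48 hours, 96-well plates. GI50 marks 50% less growth.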 The source made the active and inactive calls. Cut-off read from the data, not from the text of the source: active = GI50 up to about 1.1 µM and inactive = higher.

Columns and labels:
Assay in all cases: NCI-60 cell line screen, 48 h
786-0 = test system: 786-0
A549 = test system: A549
ACHN = test system: ACHN
COLO 205 = test system: COLO 205
HCT-15 = test system: HCT-15
HL-60 = test system: HL-60
HOP-62 = test system: HOP-62
IGROV-1 = test system: IGROV-1
K562 = test system: K562
KM12 = test system: KM12
LOX IMVI = test system: LOX IMVI
M14 = test system: M14
MCF7 = test system: MCF7
MDA-N = test system: MDA-N
NCI-H522 = test system: NCI-H522
OVCAR-5 = test system: OVCAR-5
RXF 393 = test system: RXF 393
SK-OV-3 = test system: SK-OV-3
SN12C = test system: SN12C
UACC-62 = test system: UACC-62

Structure (SMILES) | GI50 (786-0) | GI50 (A549) | GI50 (ACHN) | GI50 (COLO 205) | GI50 (HCT-15) [µM] | GI50 (HL-60) | GI50 (HOP-62) | GI50 (IGROV-1) | GI50 (K562) | GI50 (KM12) | GI50 (LOX IMVI) | GI50 (M14) | GI50 (MCF7) | GI50 (MDA-N) | GI50 (NCI-H522) | GI50 (OVCAR-5) | GI50 (RXF 393) | GI50 (SK-OV-3) | GI50 (SN12C) | GI50 (UACC-62)
CC1OC(OC2C(O[C@H]3CC[C@@]4(C)C(=CC[C@H]5[C@@H]6C[C@@H]7O[C@]8(CC[C@@H](C)CO8)[C@@H](C)[C@@H]7[C@@]6(C)CC[C@@H]54)C3)OC(CO)C(O)C2OC2OC(CO)C(O)C(O)C2O)C(O)C(O)C1O (stereo not given in full) | 1.77 µM (inactive) | 1.81 µM (inactive) | 1.8 µM (inactive) | 1.73 µM (inactive) | 1.95 | 3.35 µM (inactive) | 2.22 µM (inactive) | 1.76 µM (inactive) | 14.4 µM (inactive) | 2.21 µM (inactive) | 2.38 µM (inactive) | 2.35 µM (inactive) | 2.19 µM (inactive) | 1.72 µM (inactive) | 1.86 µM (inactive) | 13 µM (inactive) | 2.17 µM (inactive) | 1.8 µM (inactive) | 8.75 µM (inactive) | 2.33 µM (inactive)
O[C@@H]1C[C@@H]2N[C@@](O)(C[C@@H]2O)[C@H]1O | > 100 µM (inactive) | > 100 µM (inactive) | > 100 µM (inactive) | > 100 µM (inactive) | > 100 | > 100 µM (inactive) | > 100 µM (inactive) | > 100 µM (inactive) | > 100 µM (inactive) | > 100 µM (inactive) | > 100 µM (inactive) | > 100 µM (inactive) | > 100 µM (inactive) | > 100 µM (inactive) | > 100 µM (inactive) | > 100 µM (inactive) | > 100 µM (inactive) | > 100 µM (inactive) | > 100 µM (inactive) | > 100 µM (inactive)
O=C(Nc1sccc1S(=O)(=O)c1ccc(Cl)cc1)c1ccc(F)cc1F | 18.7 µM (inactive) | 48.2 µM (inactive) | 32.1 µM (inactive) | > 100 µM (inactive) | 66.4 | > 100 µM (inactive) | 24.9 µM (inactive) | 30.6 µM (inactive) | 18 µM (inactive) | > 100 µM (inactive) | > 100 µM (inactive) | > 100 µM (inactive) | 40.5 µM (inactive) | > 100 µM (inactive) | 20.3 µM (inactive) | 27.8 µM (inactive) | 21.7 µM (inactive) | 21.9 µM (inactive) | 56.8 µM (inactive) | 25.8 µM (inactive)
N#CC1(C#N)C2(c3ccccc3)OC(c3ccccc3)(c3cc4ccccc4cc32)C1(C#N)C#N | 8.51 µM (inactive) | 14.7 µM (inactive) | 11.8 µM (inactive) | 6.17 µM (inactive) | 12.2 | 2.37 µM (inactive) | 20.7 µM (inactive) | 14.8 µM (inactive) | 2.86 µM (inactive) | 7.85 µM (inactive) | 4.91 µM (inactive) | 10.6 µM (inactive) | 5.38 µM (inactive) | 16.9 µM (inactive) | 3.01 µM (inactive) | 15.8 µM (inactive) | 5.51 µM (inactive) | 21.1 µM (inactive) | 16.6 µM (inactive) | 17.7 µM (inactive)
COc1cc2c(cc1OC)C(Cl)C(c1ccc(Br)cc1)=C2Cl (stereo not given) | 3.94 µM (inactive) | 14.1 µM (inactive) | 9.46 µM (inactive) | 14.4 µM (inactive) | 8.18 | 5.46 µM (inactive) | 17.9 µM (inactive) | 11.9 µM (inactive) | 5.33 µM (inactive) | 16.3 µM (inactive) | 9.48 µM (inactive) | 11.2 µM (inactive) | 7.21 µM (inactive) | 3.23 µM (inactive) | 4.42 µM (inactive) | 15.4 µM (inactive) | 11.2 µM (inactive) | 16.1 µM (inactive) | 10.6 µM (inactive) | 11.2 µM (inactive)
COCC1OC(Sc2ccccc2)C(O)C(OC)C1OC (stereo not given) | > 100 µM (inactive) | > 100 µM (inactive) | > 100 µM (inactive) | > 100 µM (inactive) | > 100 | > 100 µM (inactive) | > 100 µM (inactive) | > 100 µM (inactive) | > 100 µM (inactive) | > 100 µM (inactive) | > 100 µM (inactive) | > 100 µM (inactive) | > 100 µM (inactive) | > 100 µM (inactive) | > 100 µM (inactive) | > 100 µM (inactive) | > 100 µM (inactive) | > 100 µM (inactive) | > 100 µM (inactive) | > 100 µM (inactive)
CCN1CCC(O)(c2ccc(Oc3ccc(Cl)cc3)cc2)C(C(=O)c2ccc(Oc3ccc(Cl)cc3)cc2)C1 (stereo not given) | 3.55 µM (inactive) | 6.97 µM (inactive) | 14 µM (inactive) | 13.2 µM (inactive) | 7.35 | 1.8 µM (inactive) | 9.48 µM (inactive) | 8.38 µM (inactive) | 5.28 µM (inactive) | 2.56 µM (inactive) | 3.78 µM (inactive) | 14 µM (inactive) | 5.41 µM (inactive) | 14 µM (inactive) | 2.83 µM (inactive) | 13.5 µM (inactive) | 26.2 µM (inactive) | 23.3 µM (inactive) | 13.7 µM (inactive) | 12.2 µM (inactive)
C/C(=C/CC[C@](C)(OC1OC(CO)C(O)C(O)C1OC1OC(C)C(O)C(O)C1O)[C@H]1CC[C@]2(C)[C@@H]1CC[C@@H]1[C@@]3(C)CC[C@H](O)C(C)(C)[C@@H]3C[C@H](O)[C@]12C)CO (stereo not given in full) | > 100 µM (inactive) | > 100 µM (inactive) | > 100 µM (inactive) | > 100 µM (inactive) | > 10 | > 100 µM (inactive) | > 100 µM (inactive) | > 100 µM (inactive) | > 100 µM (inactive) | > 100 µM (inactive) | > 100 µM (inactive) | > 100 µM (inactive) | > 100 µM (inactive) | > 100 µM (inactive) | > 100 µM (inactive) | > 100 µM (inactive) | > 100 µM (inactive) | > 100 µM (inactive) | > 100 µM (inactive) | > 100 µM (inactive)
O=[N+]([O-])C(=C1NCCN1)/C(Cl)=C(\Cl)Br | 17.6 µM (inactive) | > 100 µM (inactive) | 38.2 µM (inactive) | 19.6 µM (inactive) | 4.98 | 10.6 µM (inactive) | > 100 µM (inactive) | 52.2 µM (inactive) | 5.33 µM (inactive) | > 100 µM (inactive) | 15.7 µM (inactive) | 38.3 µM (inactive) | 30.3 µM (inactive) | 34.5 µM (inactive) | 19.1 µM (inactive) | > 100 µM (inactive) | 14.1 µM (inactive) | > 100 µM (inactive) | 41.2 µM (inactive) | 43.1 µM (inactive)
CN(C)CCNc1nc(-c2ccc3ccccc3c2)nc2[nH]cnc12 | 10 µM (inactive) | 12.5 µM (inactive) | 2.73 µM (inactive) | 7.55 µM (inactive) | 5.82 | 3.93 µM (inactive) | 10.9 µM (inactive) | 2.31 µM (inactive) | 21.1 µM (inactive) | 4.8 µM (inactive) | 4.55 µM (inactive) | 11.4 µM (inactive) | 7.33 µM (inactive) | 10.7 µM (inactive) | 1.12 µM (active) | 13.1 µM (inactive) | 11.6 µM (inactive) | 7.48 µM (inactive) | 11.1 µM (inactive) | 10.8 µM (inactive)
CCO[C@]12CCC[C@H]1[C@@H]1C(=O)c3ccccc3C(=O)C1=C(C)O2 | 29.2 µM (inactive) | > 100 µM (inactive) | 36.8 µM (inactive) | > 100 µM (inactive) | > 100 | 41.7 µM (inactive) | > 100 µM (inactive) | > 100 µM (inactive) | 32 µM (inactive) | > 100 µM (inactive) | 20.8 µM (inactive) | 34.3 µM (inactive) | 17 µM (inactive) | 19.5 µM (inactive) | > 100 µM (inactive) | > 100 µM (inactive) | 20.5 µM (inactive) | > 100 µM (inactive) | > 100 µM (inactive) | > 100 µM (inactive)
CCN(CC)Cc1cc(Nc2ccnc3ccc4c(nnn4C)c23)ccc1O | 7.14 µM (inactive) | 12.2 µM (inactive) | 2.81 µM (inactive) | 6.7 µM (inactive) | 3.67 | 9.89 µM (inactive) | 4.92 µM (inactive) | 15.4 µM (inactive) | 5.24 µM (inactive) | 14.9 µM (inactive) | 11.9 µM (inactive) | 15.3 µM (inactive) | 4.03 µM (inactive) | 11.5 µM (inactive) | 16.2 µM (inactive) | 11.1 µM (inactive) | 11.5 µM (inactive) | 14.1 µM (inactive) | 6.1 µM (inactive) | 15 µM (inactive)
COc1ccc2c(C(=O)c3c(C)n(CCN4CCOCC4)c4ccccc34)cccc2c1 | 27.7 µM (inactive) | 24.5 µM (inactive) | 37.5 µM (inactive) | 12.2 µM (inactive) | 21.3 | 4.93 µM (inactive) | 71.9 µM (inactive) | 36.6 µM (inactive) | 18.7 µM (inactive) | 22.9 µM (inactive) | 18.9 µM (inactive) | 22.3 µM (inactive) | 11.3 µM (inactive) | 17.9 µM (inactive) | 18.7 µM (inactive) | > 100 µM (inactive) | 22.1 µM (inactive) | 39.6 µM (inactive) | 71 µM (inactive) | 18.2 µM (inactive)
COc1cc(Cn2c(=S)ss/c2=N\C(=S)N(C)C)cc(OC)c1OC | 7.36 µM (inactive) | 13.2 µM (inactive) | 7.06 µM (inactive) | 9.33 µM (inactive) | 3.57 | 2.05 µM (inactive) | 13.3 µM (inactive) | 17.2 µM (inactive) | 2.59 µM (inactive) | 2.64 µM (inactive) | 4.69 µM (inactive) | 4.73 µM (inactive) | 3.64 µM (inactive) | 1.1 µM (active) | 2.3 µM (inactive) | > 68.9 µM (inactive) | 2.79 µM (inactive) | 13.4 µM (inactive) | > 50.2 µM (inactive) | 2.85 µM (inactive)
